Measurements taken from patent US20060275285A1, “Methods of inhibiting a GPCR” (Amgen Inc., priority 2005, published 2006).

How the values were obtained:
[1] = system: GPR23; assay: GPR23-specific antisense oligos evaluated for activity in bEND cells; assay type: cell-based; conditions: bEND (murine brain endothelial) cells
Experimental: GPR23-specific antisense oligos were generated by Isis Pharmaceuticals (Carlsbad, Calif.) and were evaluated for activity in bEND (murine brain endothelial) cells. […] An oligo without homology to any known gene was provided as a control ([…] (SEQ ID NO:10)). For the studies, male C57 black 6 mice were fed a high fat diet for 12 weeks (from 3 weeks of age) and analyzed for parameters of diet induced obesity. Animals that show appropriate symptoms of diet induced obesity (e.g., hyperinsulemia and weight gain with no signs of illness) were divided into 5 groups (10 animals/group) and treated as described below: […]

[2] = system: hormone sensitive lipase; assay: Gene profiling by real time PCR of adipose tissue: hormone sensitive lipase; assay type: in vivo, mice; conditions: Groups 3 and 4 (25 and 50 mg/kg)
Experimental: (§1) Fed glucose measurements were made at the beginning, midpoint and endpoint of the study. A fasting GTT measurement was done at the midpoint and endpoint of the study. Fed plasma samples were tested for insulin, total cholesterol, free fatty acids, triglycerides, and liver enzymes. At the end of the study, animals were sacrificed and tissue samples (liver, white adipose tissue, brown adipose tissue) were taken for histological evaluation and GPR23 mRNA quantitation.
(§2) Gene profiling experiments were performed to provide additional insight into the mechanism of action associated with GPR23.

[3] = system: GPR23 mRNA; assay: GPR23 mRNA quantitation by real time PCR in white adipose tissue of diet induced obese mice; assay type: in vivo; conditions: Groups 3 and 4 (25 and 50 mg/kg IP weekly for 7 weeks) vs Group 2
Experimental: (§3) GPR23-specific antisense oligos were generated by Isis Pharmaceuticals (Carlsbad, Calif.) and were evaluated for activity in bEND (murine brain endothelial) cells. […] An oligo without homology to any known gene was provided as a control ([…] (SEQ ID NO:10)). For the studies, male C57 black 6 mice were fed a high fat diet for 12 weeks (from 3 weeks of age) and analyzed for parameters of diet induced obesity. Animals that show appropriate symptoms of diet induced obesity (e.g., hyperinsulemia and weight gain with no signs of illness) were divided into 5 groups (10 animals/group) and treated as described below:
(§4) Group 1 (saline treated control): saline IP injection weekly for 7 weeks;
(§5) Group 2 (universal oligo control): oligo IP injection 50 mg/kg body weight, weekly for 7 weeks;
(§6) Group 3 (GPR23 antisense oligo (ASO) treated): oligo IP injection, 25 mg/kg body weight, weekly for 7 weeks;
(§7) Group 4 (GPR23 ASO treated): oligo IP injection, 50 mg/kg body weight, weekly for 7 weeks; and
(§8) Group 5: (rosiglitizone treated control): 50 mg/kg body weight for 7 weeks.
Fed glucose measurements were made at the beginning, midpoint and endpoint of the study. […] At the end of the study, animals were sacrificed and tissue samples (liver, white adipose tissue, brown adipose tissue) were taken for histological evaluation and GPR23 mRNA quantitation. […]

[4] = system: male C57 black 6 mice fed a high fat diet (diet induced obesity); assay: GPR23 antisense study in diet induced obesity mice (body composition, serum parameters, liver); assay type: in vivo; conditions: for body weight: 50 mg/kg IP weekly for 7 weeks (Group 4) vs control animals
Experimental: as §3, §4, §5, §6, §7, §8, §1

[5] = system: fatty acid synthase mRNA; assay: Gene profiling by real time PCR of adipose tissue: fatty acid synthase; assay type: in vivo, mice; conditions: white adipose tissue; Groups 3 and 4 (25 and 50 mg/kg)
Experimental: as §1, §2

[6] = system: PPAR-gamma; assay: Gene profiling by real time PCR of adipose tissue: PPAR-gamma; assay type: in vivo, mice; conditions: Groups 3 and 4 (25 and 50 mg/kg)
Experimental: as §1, §2

[7] = 50 mg/kg IP weekly for 7 weeks (Group 4) vs control oligo (Group 2)
[8] = Groups 3 and 4 (25 and 50 mg/kg), not statistically significant, data not shown

Sequence: CTCAGTATCATTAGCTTCAA (listed as DNA, chemistry not given here; listed as Mus musculus) [GPR23 antisense oligo]
- expression of GPR23 in cultured cells [1]: markedly reduced
- levels of hormone sensitive lipase [2]: did not change significantly
- reduction of GPR23 mRNA levels relative to control oligo treated animals [3]: ~70%
- body weight [4]: weighed slightly less than control animals
- body weight ([4]; listed as antisense oligo): weighed less than control animals
- fat mass [4, 7]: statistically significant decrease
- lean mass [4, 7]: statistically significant increase
- liver fat scores ([4]; Groups 3 and 4 (25 and 50 mg/kg)): lower
- liver enzymes (a parameter of toxicity) ([4]; Groups 3 and 4 (25 and 50 mg/kg) compared to control groups (Groups 1 and 2)): not significantly different
- free fatty acid levels [4, 8]: lower
- triglyceride levels [4, 8]: lower
- serum cholesterol levels ([4]; both 25 mg/kg and 50 mg/kg doses (Groups 3 and 4), change from baseline at week 7, relative to controls): lowered relative to controls
- glucose tolerance tests ([4]; fasting GTT, antisense oligo treatment): not affected
- fatty acid synthase mRNA levels [5]: significantly reduced in a dose-dependent manner
- levels of PPAR-gamma [6]: did not change significantly
